Reference: publication PMC5395182, “Soaking suggests “alternative facts”: Only co-crystallization discloses major ligand-induced interface rearrangements of a homodimeric tRNA-binding protein indicating a novel mode-of-inhibition” (PLoS ONE, 2017)
“Also recorded” adds a separate entry of the source. One block for each compound: values may come before it.

Experiments:
[1] = Ligand dilution in native MS buffer (precipitation); format: physicochemical; conditions: 1 M NH4Ac pH 7.5
[2] = test system: T1, TGT homodimer; experiment: Native ESI-MS of TGT:ligand 1:10 mixtures (dimer destabilization); set-up: species or system Zymomonas mobilis; conditions: for Relative proportion of TGT monomers: 2.5 µM TGT and 25 µM inhibitor (1:10), 1 M NH4Ac pH 7.5, without ligand 3.3 ± 0.7 %; for effect on TGT dimer stability / monomer proportion, in words: compared to measurements in the absence of any ligand, TGT:ligand 1:10
T1 construct: Strep-tag II (N, cleaved yes); made in house; host or cells: Escherichia coli
Procedure: In order to gain insights into the dimer disturbing potential seen in the crystal structures with the different ligands and to collect evidence for such a behavior also present in solution, native ESI-MS was performed. This technique enables to monitor the oligomerization state of TGT at equilibrium under non-denaturing conditions, in the absence or presence of saturating ligand concentrations. […] To ensure reliability, these comparative experiments were thus carried out adhering to strictly similar conditions (see Materials and methods).
Relative proportions of TGT-monomer signals extracted from individual 1:10 TGT:ligand mixtures (TGT monomer 2.5 μM) were quantified (S7 Fig, S1 Table) and normalized with respect to this value in the absence of any inhibitor.
Nano-ESI-MS analyses were performed as already described in the literature. Briefly, WT-TGT samples were exchanged twice against a 1 M ammonium acetate pH 7.5 buffer using microcentrifuge gel-filtration columns (Zeba 0.5 mL, Thermo Scientific). Next, protein concentration was determined spectrophotometrically at 280 nm (Nano-Drop 2000 spectrophotometer, Thermo Scientific).
Native MS experiments were carried out on a hybrid Q-TOF mass spectrometer (Synapt G2 HDMS, Waters) equipped with an automated chip-based nanoESI source (Triversa Nanomate, Advion Biosciences) operating in the positive ion mode. External calibrations were generated from the multiple charged ions produced by a 2 μM horse heart myoglobin solution diluted in a 1:1 (v/v) water: acetonitrile mixture acidified with 1% (v/v) formic acid (denaturing MS) and singly charged cesium iodide clusters diluted to 2 g∙L^-1 in a 1:1 (v/v) water: isopropanol solution (native MS).
Titration experiments in native conditions (1 M NH4Ac pH 7.5) were next triggered by mixing 2.5 μM TGT monomers with 25 μM of each ligand separately (ratio 1:10). The final DMSO concentration of each mixture never exceeded 0.25% (v/v). Non-covalent TGT dimers and TGT-ligand complexes were preserved in the gas phase according fine-tuned instrumental parameters, improving ion desolvation and transmission while maintaining intact structures (Vc = 80V, Pi = 6 mbar).
Relative quantification of TGT monomers was performed from charge states peak intensities of both monomeric (10 to 14+) and dimeric complexes (15 to 20+), using MassLynx 4.1 (Waters). TGT dimer disruption was determined for each ligand through their destabilization factor (Fig 8) which corresponds to their associated ratio of TGT monomers normalized from the apo-condition (S7 Fig; S1 Table). Standard deviations are calculated here from analytical triplicates. For the sake of reliability and comparability, all these experiments were performed within the same day, from identical experimental and instrumental conditions using the same buffer exchanged TGT batch (frozen and thawed only once).

[3] = target: T2, Z. mobilis TGT (Zymomonas mobilis subsp. mobilis, UniProt P28720); conditions: cited from earlier work; for Ki / affinity as described in words: radio-labeled assay, determined previously
T2 construct: Strep-tag II (N, cleaved yes); made in house; host or cells: Escherichia coli

[4] = target: T2, Z. mobilis TGT; experiment: Isothermal titration calorimetry (ITC) of ligand binding to TGT; conditions: for Kd / ΔG^0 / thermodynamic binding signature in words: ITC; for Kd: 298 K, direct titration; for ΔG^0: calculated at 298.15 K; for ΔH^0bind: ionization corrected (intercept of ΔH^0obs vs buffer ΔH^0ion); for -TΔΔS^0 / ΔΔH^0: relative to 1 used as reference; for protons picked up during binding: slope of linear regression, average over inhibitors 2 and 5
Excerpt: To further analyze the binding properties of ligands studied in this contribution we decided to establish the thermodynamic analysis of a representative subset via isothermal titration calorimetry (ITC) (data for 1 had been determined previously). ITC enables the simultaneous determination of affinity (Kd) and stoichiometry (n) as well as enthalpic contribution (ΔH^0). The entropic (-TΔS^0) term to Gibbs free energy (ΔG^0 = ΔH^0—TΔS^0) results from ΔG^0–ΔH^0 difference. Due to insufficient availability of some compounds in high purity, quantity and sufficient solubility to perform proper ITC measurements, we decided to focus our investigation on 1, 2, 3 and 5.
We recently discovered that the binding of lin-benzoguanine derivatives is associated with protonation effects that are superimposed to the heat signal of ligand binding to TGT. […] Such protonation effects become transparent when ITC measurements are performed from at least three different buffers (see Materials and methods). The overlaid […] of the protonation step was determined as the intersection of the linear regression line obtained by plotting the observed enthalpies of the studied ligands (ΔH^0obs) against the heat of ionization of the corresponding buffers (ΔH^0ion) (Fig 9a). […] The examined inhibitors 2 and 5, on average receive 0.61 ± 0.04 protons per mole of the formed complex, which is in reasonable agreement with the results obtained for 1 (0.89) and similar compounds [29].
ITC measurements were performed using a Microcal ITC200 calorimeter system from GE Healthcare. Z. mobilis TGT was dissolved in the ITC buffer (50 mM HEPES/Tricin/TRIS pH 7.8, 200 mM NaCl, 0.037% (v/v) Tween 20 and 3% (v/v) DMSO) to a final concentration of 10–20 μM.
The inhibitors were first dissolved in 100% (v/v) DMSO and diluted with the buffer solution to a final DMSO concentration of 3% (v/v). The concentration of the inhibitor in the syringe was adjusted to 200–300 μM with the ITC buffer. The reference cell contained filtered demineralized water. […] The initial delay before the injections were started was adjusted to 180–300 s and the spacing between each injection to 150–180 s. The first injection contained 0.3–0.6 μL of the inhibitor solution followed by injections of 1.0–2.4 μL until a saturation occurred. A stirring speed of 750 rpm was chosen. Raw data were collected as released heat per time. The direct titrations were done in three different buffers (HEPES/Tricin/TRIS) to correct for the overlaid protonation effect as previously described.The measured ΔH^0obs were plotted on the ordinate and the ionization enthalpy of the corresponding buffer ΔH^0ion on the abscissa (Fig 9). The positive slope of the linear regression line indicates how many protons per mole of formed complex are entrapped.
For estimation of binding affinity (Kd), Z. mobilis TGT was incubated with 90–100% saturation of inhibitor 3. Protein saturation was calculated according Rühmann et al. (2015). Inhibitor 1 as strong titrant was used to displace inhibitor 3.
For analysis of the raw data, peak integration, model fitting and evaluation, the programs NITPIC [57] and SEDPHAT [58] were used. The initial injection peak was removed and the areas of the remaining peaks were integrated. The correction of the heats of dilution was conducted by subtraction of the final constant injection peak area integrals. The A+B ↔ AB hetero-association model (1:1 stoichiometry) was applied, whereby ΔH^0 and Kd were directly obtained. The ΔG^0 and -TΔS^0 values were calculated using a temperature of 298.15 K. For illustration of the integrated raw data and the ITC isotherms, the program GUSSI was used. Obtained thermodynamic data per buffer are reported as mean values averaged over at least three measurements.

[5] = HEPES buffer, Gibbs-Helmholtz equation
[6] = TRIS buffer, Gibbs-Helmholtz equation
[7] = Tricin buffer, Gibbs-Helmholtz equation

T2 sequence (P28720 whole entry): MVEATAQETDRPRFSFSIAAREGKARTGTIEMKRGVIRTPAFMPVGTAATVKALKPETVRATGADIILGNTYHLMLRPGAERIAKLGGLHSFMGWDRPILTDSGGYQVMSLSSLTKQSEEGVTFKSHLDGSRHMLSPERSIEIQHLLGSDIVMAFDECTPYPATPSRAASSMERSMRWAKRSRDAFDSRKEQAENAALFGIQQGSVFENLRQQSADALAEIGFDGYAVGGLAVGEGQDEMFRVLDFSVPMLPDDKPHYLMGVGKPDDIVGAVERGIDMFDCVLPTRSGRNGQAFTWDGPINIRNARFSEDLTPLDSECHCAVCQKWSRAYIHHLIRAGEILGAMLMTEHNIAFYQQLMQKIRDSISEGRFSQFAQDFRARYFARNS

SMILES: CNc1nc2c(CCNCC3CCCCC3)c3nc(N)[nH]c(=O)c3cc2[nH]1 [Inhibitor 6]
precipitation upon ligand dilution in buffer [1]: partial precipitation; also recorded: apparent precipitation | Relative proportion of TGT monomers [2]: 2.5% | effect on TGT dimer stability / monomer proportion, in words [2]: did not exert any influence on dimer stability | Ki / affinity as described in words [3]: single-digit nanomolar

SMILES: Cc1ccc(CCc2c3nc[nH]c3cc3c(=O)[nH]c(N)nc23)cc1 [Inhibitor 8]
Relative proportion of TGT monomers [2]: 7.1% | effect on TGT dimer stability / monomer proportion, in words [2]: slightly increased proportion of TGT monomer

ΔH^0obs ([4]; HEPES buffer): -50.2 ± 3.4 kJ/mol | -TΔS^0 [4, 5]: 6.2 ± 3.7 kJ/mol | Kd [4]: 32 ± 9 nM | ΔG^0 [4]: -43.1 ± 0.8 kJ/mol | ΔH^0obs ([4]; TRIS buffer): -34.3 ± 2.2 kJ/mol | -TΔS^0 [4, 6]: -8.3 ± 1.4 kJ/mol | ΔH^0obs ([4]; Tricin buffer): -43.2 ± 4.1 kJ/mol | -TΔS^0 [4, 7]: 0.5 ± 3.3 kJ/mol | -TΔS^0 ([4]; ionization corrected): 18.8 kJ/mol | ΔH^0bind [4]: -61.9 kJ/mol | -TΔΔS^0 ([4]; ionization corrected): -33.2 kJ/mol | ΔΔH^0 ([4]; ionization corrected): 31.7 kJ/mol
SMILES: CNc1nc2c(CCNCC3CCCC3)c3nc(N)[nH]c(=O)c3cc2[nH]1 [Inhibitor 5]
Relative proportion of TGT monomers [2]: 4.2% | effect on TGT dimer stability / monomer proportion, in words [2]: No effect on dimer stability | Ki [3]: 2 ± 1 nM | Ki / affinity as described in words [3]: single-digit nanomolar | protons picked up during binding [4]: 0.61 ± 0.04 protons per mole of the formed complex

SMILES: COc1ccc(CCc2c3nc[nH]c3cc3c(=O)[nH]c(N)nc23)cc1 [Inhibitor 7]
Relative proportion of TGT monomers [2]: 9.4% | effect on TGT dimer stability / monomer proportion, in words [2]: slightly increased proportion of TGT monomer

ΔH^0obs ([4]; HEPES buffer): -40.2 ± 2.2 kJ/mol | -TΔS^0 [4, 5]: 2.4 ± 2.1 kJ/mol | thermodynamic binding signature in words [4]: more enthalpically favored binder | Kd [4]: 275 ± 49 nM | ΔG^0 [4]: -37.9 ± 0.4 kJ/mol | ΔH^0obs ([4]; TRIS buffer): -23.5 ± 2.0 kJ/mol | -TΔS^0 [4, 6]: -14.1 ± 1.6 kJ/mol | ΔH^0obs ([4]; Tricin buffer): -35.6 ± 3.2 kJ/mol | -TΔS^0 [4, 7]: -2.7 ± 2.7 kJ/mol | -TΔS^0 ([4]; ionization corrected): 15.9 kJ/mol | ΔH^0bind [4]: -53.9 kJ/mol | -TΔΔS^0 ([4]; ionization corrected): -36.1 kJ/mol | ΔΔH^0 ([4]; ionization corrected): 39.7 kJ/mol
SMILES: CNc1nc2c(CC[C@H]3O[C@@H](OC)[C@H](O)[C@@H]3O)c3nc(N)[nH]c(=O)c3cc2[nH]1 [Inhibitor 2]
Relative proportion of TGT monomers [2]: 5.3% | effect on TGT dimer stability / monomer proportion, in words [2]: No effect on dimer stability | Ki [3]: 217 ± 81 nM | Ki / affinity as described in words [3]: three-digit nanomolar | protons picked up during binding [4]: 0.61 ± 0.04 protons per mole of the formed complex

heat signal in ITC displacement titration ([4]; TGT 100% saturated with 3, 1 as titrant, HEPES): again no heat signal was recorded | binding constant from ITC displacement experiments, in words ([4]; TGT saturated about 90% with 3, 1 as titrant): falls close to that of 1
SMILES: CNc1nc2c(CC[C@H]3O[C@@H](OC)[C@H](O)[C@@H]3OC)c3nc(N)[nH]c(=O)c3cc2[nH]1 [Inhibitor 3]
Relative proportion of TGT monomers [2]: 9.6% | effect on TGT dimer stability / monomer proportion, in words [2]: slightly increased proportion of TGT monomer | Ki / affinity as described in words [3]: submicromolar; also recorded: three-digit nanomolar | heat signal in ITC, direct titration of ligand to TGT ([4]; HEPES, Tricin, TRIS buffers, also up to 308 K in HEPES): no heat effects at all could be detected; also recorded: no detectable heat signal | thermodynamic binding signature in words [4]: overwhelmingly entropy-driven; also recorded: pure entropically-driven binding signature

SMILES: Nc1nc2c(CCc3ccccc3)c3nc[nH]c3cc2c(=O)[nH]1 [Inhibitor 9]
Relative proportion of TGT monomers [2]: 12.6% | effect on TGT dimer stability / monomer proportion, in words [2]: slightly increased proportion of TGT monomer; also recorded: most significant increase of normalized monomer proportion

SMILES: Nc1nc2cc3nc[nH]c3cc2c(=O)[nH]1 [lin-benzoguanine, reference compound]
Ki [3]: 4100 ± 1000 nM
